From patent US10960018B2, “Methods and compounds for stimulating read-through of premature termination codons” (The UAB Research Foundation, priority 2016, dated 2021)
Marks after values point to notes of the source that are not given here.

What was measured:
[1] = system: FRT G542X cells; test: Transepithelial chloride conductance (TECC) assay in FRT G542X cells; type: cell-based, Rat; conditions: 48 hours; for FRT G542X TECC Gt Mean ± SE: forskolin-stimulated; for forskolin-stimulated CFTR conductance vs vehicle control: 1 μM to 30 μM, P<0.05
Experimental: Stably transfected FRT cells as described herein cells were seeded onto Costar 24-well […] permeable supports at a density of ˜2×10^6 cells/filter and maintained at 37° C. with 5% CO2. Transepithelial resistance was assessed using an epithelial voltmeter to ensure the formation of tight monolayers, as defined by resistance >6 kcm^2. During initial evaluation of agents, cells were treated with compounds (10 μM), vehicle control (0.3% DMSO), or positive control (250 μg/mL G418) for 48 hours before transepithelial conductance (Gt) was assessed; subsequent studies used other concentrations of compounds. Measurements were taken at baseline, after the addition of 20 μM forskolin (FSK, a cAMP agonist that stimulates CFTR activity) and 10 μM CFTRInh-172 (a CFTR-specific inhibitor).
In the TECC assay, FRT G542X cells were treated with a single dose (10 μM) of each compound. FRT G542X cells were incubated for 48 hours with the compounds prior or vehicle control (0.3% DMSO). During the assay the baseline conductance (Gt) was initially determined prior to the acute addition of forskolin (20 μM) and VX-770 (10 μM) to stimulate CFTR activity; the CFTR inhibitor, CFTRInh-172 (10 μM), was added to inhibit CFTR activity at the end of the assay. In these experiments, an increase in CFTR conductance indicates the compounds stimulated read-through of the PTC in the constructs tested and that the CFTR was functional.
To prioritize which of the 48 read-through-positive compounds identified would be most efficacious in augmenting PTC read-through and restoring protein function, the TECC assay was repeated (in triplicate) using FRT G542X cells and FRT cells without CFTR (parental cells). Compounds (10 μM) or vehicle control (0.3% DMSO) were incubated for 48 hours with the cells. During the assay the baseline conductance (Gt) was initially determined prior to the acute addition of forskolin (20 μM) and VX-770 (10 μM) to stimulate CFTR activity; the CFTR inhibitor, CFTRInh-172 (10 μM), was added to inhibit CFTR activity at the end of the assay. G418 (250 μg/ml) was used as a positive control. In this assay, an increase in CFTR conductance indicates the compound stimulated read-through of the PTC in the constructs tested and that the CFTR was functional. The 48 compounds tested are provided in the Table 1 below (with the numerical designations corresponding to those shown in FIG. 4).
A series of functional assays was performed to evaluate the efficacy of these lead compounds in greater detail. Using FRT G542X cells, the optimal dose of each compound in augmenting chloride conductance (FIG. 5A) was determined. FRT G542X cells were incubated with compound (1 μM to 30 μM), G418 (250 μg/mL) or vehicle control (0.3% DMSO) for 48 hours. The conductance assay was conducted as described in Example 2 above. In this assay, an increase in CFTR conductance indicates the compounds stimulated read-through of the PTC in the constructs tested and that the CFTR was functional.

[2] = system: α-L-iduronidase; test: α-L-iduronidase activity assay in MEF cells from homozygous Idua-W402X mice; type: cell-based, Mouse; conditions: 48 hours; escin 0.25 to 160 μM, doxorubicin 5 to 160 μM
Experimental: α-L-iduronidase activity was determined as follows. Cell extracts were obtained from mouse embryonic fibroblast (MEF) cells homozygous for the W402X mutation and immortalized using the SV40 Large T antigen using a lentiviral expression system. α-L-iduronidase activity was determined as described by Wang et al. (Wang, D. et al., 2012; Mol Genet Metab 105: 116-125). Briefly, 4-methyl-umbelliferone iduronide (FMU) was added to the cell lysate as a substrate at low pH (for example, 130 mM sodium formate buffer, pH 3.5). The reaction was incubated for 72 h at 37° C. after which the reaction was quenched by the addition of high pH buffer (for example, glycine-NaOH buffer, pH 10.8). The fluorescence of the cleaved free FMU molecule was immediately measured at 365 nm excitation and 450 nm emission using a fluorometer and the amount of active iduronidase was expressed as nmol FMU released/mg protein/hour.
After 48 hours, cell lysates were obtained and the activity of MEF α-L-iduronidase was determined. Enhancement of PTC read-through by the compounds of the present disclosure was determined by an increase in α-L-iduronidase activity.

[3] = system: FRT Y122X^HRP cells; test: HRP CFTR expression assay, Y122X; type: cell-based, Rat; conditions: 48 hours; escin 10 μM, VX-809 3 μM
Experimental: (§1) To measure cell surface expression of CFTR, FRT cells expressing the fusion protein of G542X CFTR and HRP were treated with 10 μM of lead compounds for 48 hours at 37° C. and 5% CO2. Holding DMSO concentration at 0.3%, FRT cells were washed 4 times in PBS supplemented with 1 mM MgCl2 and 0.1 mM CaCl2 and then incubated with the HRP substrate (Fisher, #PI-34096, 15 μl/well) at room temperature for 10 minutes. The luminescent HRP signal was analyzed via a Synergy NEO microplate reader (BioTek Instruments).
(§2) The effect of the read-through stimulating compounds of the present disclosure in combination with the CFTR corrector VX-809 was further examined in FRT cells with the G542X, Y122X and W1282X mutations. Enhancement of PTC read-through by the compounds of the present disclosure was determined by an increase in CFTR conductance (FIGS. 13A-13C) or an increase in CFTR protein expression at the cell surface (FIGS. 14A-14C). CFTR conductance also indicated the CFTR was functional as a result of the read-through of the PTC.

[4] = system: FRT W1282X^HRP cells; test: HRP CFTR expression assay, W1282X; type: cell-based, Rat; conditions: 48 hours; escin 10 μM, VX-809 3 μM
Experimental: as §1, §2

COc1cccc2c1C(=O)c1c(O)c3c(c(O)c1C2=O)C[C@@](O)(C(=O)CO)C[C@@H]3O[C@H]1C[C@H](N)[C@H](O)[C@H](C)O1 [Doxorubicin, DOXORUBICIN]
FRT G542X TECC Gt Mean ± SE ([1]; 10 μM): 0.11 ± 0.01 mS/cm^2 | α-L-iduronidase activity as compared to vehicle control [2]: dose-dependent increase

CCCOc1ccc2nc(NC(=O)OC)[nH]c2c1 [Oxibendazole, OXIBENDAZOLE]
forskolin-stimulated CFTR conductance vs vehicle control [1]: significantly higher | FRT G542X TECC Gt Mean ± SE ([1]; 30 μM (footnote c)): 0.16 ± 0.005****^,c mS/cm^2

Cc1ccc(NC(=O)C2(c3ccc4c(c3)OC(F)(F)O4)CC2)nc1-c1cccc(C(=O)O)c1 [VX-809]
CFTR protein expression at the cell surface [3]: significant stimulatory effects | CFTR stimulation (conductance) in the presence of forskolin and GP-5 ([1]; escin 10 μM, VX-809 3 μM, GP-5 10 μM, C1+C2 10 μM): non-significant effects | CFTR protein expression at the cell surface [4]: significant stimulatory effects

C[C@@H]1C[C@@H]([C@H](O)CC2CC(=O)NC(=O)C2)C(=O)[C@@H](C)C1 [Cyclohexamide, CYCLOHEXIMIDE]
forskolin-stimulated CFTR conductance vs vehicle control [1]: significantly higher | FRT G542X TECC Gt Mean ± SE ([1]; 3 μM (footnote b)): 0.13 ± 0.06**^,b mS/cm^2
